Laboratory results as given in PubChem BioAssay (NCI).
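Step 1: Grow cells in 96-well plates. Step 2: Expose to compound for 48 hours at 5 concentrations. Step 3: Interpolate endpoints linearly; if unreached, use highest concentration. At the GI50, growth is halved. The concentration for full growth arrest is given as TGI.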

Key:
Assay in all cases: growth of human tumour cells (NCI), 48 h
HS 578T breast = system: HS 578T breast
DU-145 prostate = system: DU-145 prostate
UACC-257 melanoma = system: UACC-257 melanoma
M14 melanoma = system: M14 melanoma
HL-60(TB) leukemia = system: HL-60(TB) leukemia
LOX IMVI melanoma = system: LOX IMVI melanoma
CAKI-1 renal = system: CAKI-1 renal
NCI-H23 lung = system: NCI-H23 lung
OVCAR-4 ovarian = system: OVCAR-4 ovarian
U251 CNS = system: U251 CNS

| SMILES | GI50 (HS 578T breast) | TGI (HS 578T breast) | GI50 (DU-145 prostate) | TGI (DU-145 prostate) | GI50 (UACC-257 melanoma) | TGI (UACC-257 melanoma) | GI50 (M14 melanoma) | TGI (M14 melanoma) | GI50 (HL-60(TB) leukemia) | TGI (HL-60(TB) leukemia) | GI50 (LOX IMVI melanoma) | TGI (LOX IMVI melanoma) | GI50 (CAKI-1 renal) | TGI (CAKI-1 renal) | GI50 (NCI-H23 lung) | TGI (NCI-H23 lung) | GI50 (OVCAR-4 ovarian) | TGI (OVCAR-4 ovarian) | GI50 (U251 CNS) | TGI (U251 CNS) |
| --- | --- | --- | --- | --- | --- | --- | --- | --- | --- | --- | --- | --- | --- | --- | --- | --- | --- | --- | --- | --- |
| Oc1ccc2oc3ncc(Cl)c(-c4ccccc4)c3c2c1 | > 100000 nM | > 100000 nM | > 100000 nM | > 100000 nM | > 100000 nM | > 100000 nM | > 100000 nM | > 100000 nM | > 100000 nM | > 100000 nM | > 100000 nM | > 100000 nM | > 100000 nM | > 100000 nM | > 100000 nM | > 100000 nM | > 100000 nM | > 100000 nM | > 100000 nM | > 100000 nM |
| CC(C)C[C@H](NC(=O)[C@H](CCc1ccccc1)NC(=O)CN1CCOCC1)C(=O)N[C@@H](Cc1ccccc1)C(=O)N[C@@H](CC(C)C)C(=O)[C@@]1(C)CO1 | 22.4 nM | 3340 nM | 18.3 nM | 1370 nM | 54.7 nM | 287 nM | < 13.1 nM | 44.6 nM | 26.8 nM | 93 nM | < 10 nM | 13.5 nM | 109 nM | 781 nM | < 15 nM | 115 nM | < 11.7 nM | – | < 12.7 nM | 63.2 nM |
| O=C(NCc1cccnc1)/C(=C\c1ccc(Br)cc1)S(=O)(=O)c1ccccc1 | 1250 nM | 5310 nM | 431 nM | 1530 nM | 1250 nM | 2680 nM | 1040 nM | 2860 nM | 345 nM | 2050 nM | 450 nM | 1730 nM | 1020 nM | 2220 nM | 935 nM | 2300 nM | 416 nM | 1800 nM | 774 nM | 2230 nM |
| CCN1CCN(c2nc(NNC(=O)Cc3ccccc3)nc(N3CCN(C(c4ccccc4)c4ccccc4)CC3)n2)CC1 | 1680 nM | 3790 nM | 2730 nM | 7200 nM | 1830 nM | 3790 nM | 1830 nM | 3410 nM | 1890 nM | 4040 nM | 1890 nM | 3430 nM | 1700 nM | 3310 nM | 5510 nM | 18800 nM | 4710 nM | 17500 nM | 1780 nM | 3600 nM |
| COc1ccc(C(=O)c2cc(OC)c(OC)c(OC)c2)cc1OC(C)=O | 23.5 nM | > 100000 nM | 32.4 nM | > 100000 nM | > 100000 nM | > 100000 nM | < 14.3 nM | > 100000 nM | < 14.1 nM | < 22.8 nM | 22 nM | > 100000 nM | 74.6 nM | > 100000 nM | 66.2 nM | > 100000 nM | 82.2 nM | > 100000 nM | 39.2 nM | > 100000 nM |
| CC[C@@]1(O)C(=O)NCc2c1cc1n(c2=O)Cc2cc3ccccc3nc2-1 | > 100000 nM | > 100000 nM | 2280 nM | > 45800 nM | 7950 nM | > 59100 nM | 1490 nM | 15100 nM | 1330 nM | > 24000 nM | 2060 nM | > 100000 nM | 754 nM | 11000 nM | 1800 nM | 5860 nM | 35500 nM | > 100000 nM | 2390 nM | > 42800 nM |
| COc1cc(C)c(C(=O)O[C@H]2[C@H](O[C@H]3[C@@H](O)COC(O[C@H]4C[C@H]5[C@@H]6CC=C7C[C@@H](O)CC[C@]7(C)[C@H]6CC[C@]5(C)[C@H]4[C@H](C)C(=O)CCC(C)C)[C@@H]3OC(C)=O)OC[C@@H](O)[C@@H]2O)c(C)c1 (some centres undefined) | < 10 nM | 161 nM | 1520 nM | 21900 nM | 21 nM | 73.8 nM | < 10 nM | < 10 nM | 16 nM | 20000 nM | < 10 nM | 18.3 nM | < 10 nM | 1180 nM | 384 nM | 14200 nM | 571 nM | 69900 nM | < 10 nM | 12800 nM |
| CN(C)C[C@H]1CC[C@@H](CN(C)C)C1=O | – | 36600 nM | – | > 50000 nM | – | 16000 nM | – | 16700 nM | – | 4100 nM | – | 14200 nM | 297 nM | – | – | 18400 nM | – | 16300 nM | – | > 40400 nM |
| O=C(O)c1c(O)c2cc(Br)ccc2oc1=O | – | > 100000 nM | – | > 100000 nM | – | > 100000 nM | – | > 100000 nM | – | > 100000 nM | – | > 100000 nM | – | > 100000 nM | – | > 100000 nM | – | > 100000 nM | – | > 100000 nM |
| COc1ccc(-c2ccc3c(NC(=O)C4CC4)n[nH]c3n2)cc1 | 23600 nM | > 25000 nM | > 25000 nM | > 25000 nM | > 25000 nM | > 25000 nM | > 25000 nM | > 25000 nM | > 25000 nM | > 25000 nM | > 25000 nM | > 25000 nM | > 25000 nM | > 25000 nM | > 25000 nM | > 25000 nM | > 25000 nM | > 25000 nM | 18000 nM | > 25000 nM |
